Where “and” joins values, the source holds several entries; their conditions need not be identical. Equal entries are not always repeated.
How the values were obtained:
[1] = system: Apoprotein E deficient mice; test: Thoracic aorta lipids (Bligh-Dyer extraction, WAKO kits; TC, FC, CE per mg protein); type: in vivo; conditions: 12 weeks
Source text: (§1) Apoprotein E deficient mice (Jackson Laboratories, 600 Main Street, Bar Harbor, Me.) were used in this study. The mice were male, 7-8 weeks of age, and between 18-20 g in weight. An initial total cholesterol measurement was made on 30 mice, and the mice were grouped into two groups of 15 to match the total cholesterol measurements. Both groups were fed a “western diet” (40 kcal % butterfat, 0.15% [wt/wt] cholesterol, Harlan Teklad diet TD-88137). Starting at t=0, the control group of 15 mice received vehicle only (phosphate buffered saline at pH 7.4), while the test group of 15 mice received aromatic-cationic peptide reconstituted in phosphate buffered saline. Body weights of the mice were recorded weekly, and mortality checks were performed daily.
(§2) The aromatic-cationic peptide D-Arg-2′6′-Dmt-Lys-Phe-NH2 (sterile lyophilized powder, reconstituted in phosphate buffered saline) was tested. For the 12-week study, test mice received a single, daily dose of the peptide, subcutaneously at 1 mg/kg. Control mice received a single daily dose of vehicle.
Histopathology/Histomorphometery: Following the 12 week treatment, mice were euthanized within 48 hours after the last dose by CO2 asphyxiation and the vascular tree was perfused with 5 mL of phosphate buffered saline (pH 7.4). The aorta and aortic sinus were removed for examination. Thoracic aorta were isolated, trimmed of fat, and fixed in formalin for 48-72 hours before analysis. For en face analysis, aortas were laid out and pinned on black matrix for photography, and stained with Sudan IV. Vessels were imaged for surface involvement using a Nikon computerized image analysis system and the percent of the aortic surface area covered by lipid was calculated. Two determinations were done for each image (Quan 1 and Quan 2), and the average was computed. The data were then computed by group and statistically analyzed. Following staining and morphometric analysis, total lipids were extracted from the aortas using the Bligh-Dyer method. WAKO Diagnostics kits (WAKO Diagnostics, Inc., 1600 Bellwood Road Richmond, Va. 23237-1326) were then used to evaluate total cholesterol, free cholesterol, and cholesterol ester. Cholesterol leves were quantitate nad expressed relative to protein levels. Values are expressed as μg lipid per mg protein (see e.g., FIG. 1).

[2] = system: Apoprotein E deficient mice; test: Plasma lipid analysis using an autoanalyzer (TC, Trigs, PL, FC, CE by calculation); type: in vivo; design: TC, plasma / FC, plasma / CE, plasma / Trigs, plasma / PL, plasma / TC / FC / CE / Trigs / PL: unit not given here; conditions: for CE: plasma cholesterol ester; for FC: plasma free cholesterol; for PL: plasma phospholipid
Source text: as §1, §2
Experimental Protocol/Data Collection. Blood was collected every four weeks (orbital plexis) under isoflurane anesthesia (3%) and blood lipids were determined. Plasma lipid analysis was conducted for both groups at t=0, 4, […], 8, and 12 weeks. Plasma lipid analysis using an autoanalyzer included total cholesterol (TC), triglycerides (Trigs), phospholipids (PL), free cholesterol (FC), and cholesterol ester (CE, by calculation). Gel electrophoresis was used to measure levels of high-density lipoprotein cholesterol (HDL-C), low-density lipoprotein cholesterol (LDL-C), and very low-density lipoprotein cholesterol (VLDL-C).

[3] = group average, 1 mg/kg subcutaneously daily
[4] = individual mouse, 1 mg/kg subcutaneously daily, μg lipid per mg protein, listed as Peptide, 1 mg/kg
[5] = treated versus vehicle, listed as aromatic-cationic peptide
[6] = Week 0 (t=0, start of dosing), individual mouse of test group
[7] = Week 0, group average of test group
[8] = at 4, 8 and 12 week time points, versus vehicle
[9] = week 4, individual test mouse (sample #16-30), listed as aromatic-cationic peptide
[10] = week 8, individual test mouse (sample #16-30), listed as aromatic-cationic peptide
[11] = week 12, AVE of 15 test animals
[12] = week 12, individual test mouse (sample #16-30), listed as aromatic-cationic peptide

Which results are given for D-Arg-2′6′-Dmt-Lys-Phe-NH2?
CE (cholesterol ester), thoracic aorta, AVE [1, 3]: 14.6 µg/mg; FC (free cholesterol), thoracic aorta, AVE [1, 3]: 5.7 µg/mg; TC (total cholesterol), thoracic aorta, AVE [1, 3]: 20.4 µg/mg; CE (cholesterol ester), thoracic aorta [1, 4]: 13.8 μg/mg and 2.7 μg/mg and 30.3 μg/mg and 14.7 μg/mg and 30.7 μg/mg and 14.1 μg/mg and 4.6 μg/mg (2×) and 5.6 μg/mg (2×) and 28.5 μg/mg and 21.3 μg/mg and 18.6 μg/mg and 11.4 μg/mg and 13.0 μg/mg; FC (free cholesterol), thoracic aorta [1, 4]: 7.6 μg/mg (2×) and 4.0 μg/mg and 5.1 μg/mg and 3.0 μg/mg (2×) and 8.1 μg/mg and 2.7 μg/mg and 3.5 μg/mg and 14.6 μg/mg and 6.6 μg/mg and 3.8 μg/mg and 3.6 μg/mg and 3.3 μg/mg and 9.5 μg/mg; TC (total cholesterol), thoracic aorta [1, 4]: 21.4 µg/mg and 6.7 µg/mg and 35.4 µg/mg and 17.7 µg/mg and 38.8 µg/mg and 16.8 µg/mg and 8.1 µg/mg and 20.1 µg/mg and 35.1 µg/mg and 9.4 µg/mg and 24.9 µg/mg and 21.7 µg/mg and 7.9 µg/mg and 19.0 µg/mg and 22.5 µg/mg; cholesterol esters in the thoracic aorta, in words [1, 5]: lower; free cholesterol in the thoracic aorta, in words [1, 5]: lower; total cholesterol in the thoracic aorta, in words [1, 5]: lower; FC, plasma [2, 6]: 119 and 121 and 134 (2×) and 110 and 116 and 131 and 129 and 184 and 113 and 139 and 170 and 151 and 159 and 220; PL, plasma [2, 6]: 267 (3×) and 308 and 255 and 306 and 298 and 369 and 238 and 320 and 313 and 332 and 343 and 338 and 413; TC, plasma [2, 6]: 302 (2×) and 318 and 376 and 323 and 335 and 369 and 550 and 309 and 409 and 431 and 552 and 457 and 490 and 808; Trigs, plasma [2, 6]: 75 and 88 (3×) and 117 and 96 and 71 and 138 and 167 and 136 and 151 and 191 and 188 and 154 and 353; CE, plasma ([2]; Week 0 (t=0, start of dosing), individual mouse of test group, by calculation): 183 and 197 and 242 and 192 and 207 and 204 and 240 and 366 and 196 and 270 and 297 and 382 and 306 and 331 and 588; FC, plasma, AVE [2, 7]: 142; PL, plasma, AVE [2, 7]: 309; TC, plasma, AVE [2, 7]: 422; Trigs, plasma, AVE [2, 7]: 140; CE, plasma, AVE ([2]; Week 0, group average of test group, by calculation): 280; plasma cholesterol ester, in words [2, 8]: reduces; plasma free cholesterol, in words [2, 8]: reduces; plasma phospholipid levels, in words [2, 8]: reduces; plasma total cholesterol, in words [2, 8]: reduces; plasma triglycerides, in words [2, 8]: reduces; CE ([2]; week 4, AVE of 15 test animals): 610; CE [2, 9]: 491 and 580 and 622 and 731 and 626 and 417 and 574 and 660 and 515 and 536 and 630 and 761 and 581 and 732 and 701; CE ([2]; week 8, AVE of 15 test animals): 932; CE [2, 10]: 940 and 710 and 1119 and 865 and 1153 and 653 and 714 and 1085 and 715 and 670 and 1073 and 1048 and 839 and 1130 and 1267; CE [2, 11]: 681; CE [2, 12]: 607 and 335 and 597 and 640 and 1002 and 477 and 445 and 476 and 675 and 687 and 960 and 869 and 339 and 904 and 1201; FC ([2]; week 4, AVE of 15 test animals): 387; FC [2, 9]: 308 and 344 and 354 (2×) and 408 and 412 and 256 and 366 and 386 and 320 and 286 and 396 and 462 and 516 and 636; FC ([2]; week 8, AVE of 15 test animals): 350; FC [2, 10]: 322 and 294 (2×) and 386 and 318 and 392 and 290 and 388 and 308 (2×) and 286 and 362 and 366 and 404 and 530; FC [2, 11]: 322; FC [2, 12]: 291 and 205 and 287 and 296 and 418 and 242 and 229 and 269 and 315 and 312 and 419 and 386 and 219 and 413 and 535; PL ([2]; week 4, AVE of 15 test animals): 514; PL [2, 9]: 422 and 482 and 452 and 560 and 526 and 320 and 506 and 556 and 446 and 416 and 516 and 580 and 510 and 666 and 750; PL ([2]; week 8, AVE of 15 test animals): 493; PL [2, 10]: 416 and 456 and 474 and 448 and 516 (2×) and 424 and 480 and 488 and 436 and 440 and 556 and 470 and 540 and 728
